System: rabbit skeletal myofibrils (fast skeletal myofibrils)
Experiment: Activation of fast skeletal myofibrils (PUMA assay, PK/LDH-coupled ATPase at pCa25)
Format: biochemical
Outline: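 ATPase activity of Triton-washed rabbit skeletal myofibrils, roughly 90% fast fibres, tracked by NADH loss at 340 nm through a PK/LDH-coupled ADP-regenerating system. Calcium set to 25% of maximal activity (pCa25), in PIPES 12 mM pH 6.8 with 2 mM MgCl2 and 1 mM DTT; AC1.4 reported.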

[1] = AC1.4 determined according to the procedure of Example 39, reported as class symbols
[2] = median AC1.4 class, procedure of Example 39

| Mean AC1.4 [1] | Mean AC1.4 [2] | SMILES |
| --- | --- | --- |
| B (B=1-10 uM) |  | COc1cccnc1C1(CNc2ccc(-c3ccc4[nH]ncc4c3)nn2)CCC1 [(6-(1H-indazol-5-yl)pyridazin-3-yl){[(3-methoxy(2-pyridyl))cyclobutyl]methyl}amine] |
| A (A=<1 uM) |  | Fc1ccc(C2(CNc3ccc(-c4ccc5[nH]ncc5c4)nn3)CCC2)cc1 [(6-(1H-indazol-5-yl)pyridazin-3-yl){[(4-fluorophenyl)cyclo-butyl]methyl}amine] |
| A (A=<1 uM) |  | COc1ccnc(C2(CNc3ccc(-c4ccc5[nH]ncc5c4)nn3)CCC2)c1 [(6-(1H-indazol-5-yl)pyridazin-3-yl){[(4-methoxy(2-pyridyl))cyclobutyl]methyl}amine] |
| B (B=1-10 uM) |  | COc1ccc(C2(CNc3ccc(-c4ccc5[nH]ncc5c4)nn3)CCC2)nc1 [(6-(1H-indazol-5-yl)pyridazin-3-yl){[(5-methoxy(2-pyridyl))cyclobutyl]methyl}amine] |
| A (A=<1 uM) |  | COc1cccc(C2(CNc3ccc(-c4ccc5[nH]ncc5c4)nn3)CCC2)n1 [(6-(1H-indazol-5-yl)pyridazin-3-yl){[(6-methoxy(2-pyridyl))cyclobutyl]methyl}amine] |
|  | D (D=>20 uM) | FC(F)(CNc1ccc(-c2ccc3cn[nH]c3c2)nn1)c1ccccn1 [(6-(1H-indazol-6-yl)pyridazin-3-yl)(2,2-difluoro-2-(2-pyridyl)ethyl)amine] |
| A (A=<1 uM) |  | CC(C)(CNc1ccc(-c2ccc3cn[nH]c3c2)nn1)c1ccc(F)cc1 [(6-(1H-indazol-6-yl)pyridazin-3-yl)[2-(4-fluorophenyl)-2-methylpropyl]amine] |
| A (A=<1 uM) |  | c1ccc(C2(CNc3ccc(-c4ccc5cn[nH]c5c4)nn3)CCC2)nc1 [(6-(1H-indazol-6-yl)pyridazin-3-yl)[(2-pyridylcyclobutyl)methyl]amine] |
|  | B (B=1-10 uM) | Fc1cccnc1C1(Nc2ccc(-c3ccc4cn[nH]c4c3)nn2)CCC1 [(6-(1H-indazol-6-yl)pyridazin-3-yl)[(3-fluoro(2-pyridyl))cyclobutyl]amine] |
| C (C=10-20 uM) |  | c1cnc(C2(CNc3ccc(-c4ccc5cn[nH]c5c4)nn3)CCC2)cn1 [(6-(1H-indazol-6-yl)pyridazin-3-yl)[(pyrazin-2-ylcyclobutyl)methyl]amine] |
|  | B (B=1-10 uM) | Fc1cccnc1C1(CNc2ccc(-c3ccc4cn[nH]c4c3)nn2)CC(F)(F)C1 [(6-(1H-indazol-6-yl)pyridazin-3-yl){[3,3-difluoro-1-(3-fluoro(2-pyridyl))cyclobutyl]methyl}amine] |
| A (A=<1 uM) |  | Fc1cccnc1C1(CNc2ccc(-c3ccc4cn[nH]c4c3)nn2)CCC1 [(6-(1H-indazol-6-yl)pyridazin-3-yl){[(3-fluoro(2-pyridyl))cyclobutyl]methyl}amine] |
| B (B=1-10 uM) |  | COc1cccnc1C1(CNc2ccc(-c3ccc4cn[nH]c4c3)nn2)CCC1 [(6-(1H-indazol-6-yl)pyridazin-3-yl){[(3-methoxy(2-pyridyl))cyclobutyl]methyl}amine] |
| A (A=<1 uM) |  | Fc1ccc(C2(CNc3ccc(-c4ccc5cn[nH]c5c4)nn3)CCC2)cc1 [(6-(1H-indazol-6-yl)pyridazin-3-yl){[(4-fluorophenyl)cyclo-butyl]methyl}amine] |
| A (A=<1 uM) |  | COc1ccnc(C2(CNc3ccc(-c4ccc5cn[nH]c5c4)nn3)CCC2)c1 [(6-(1H-indazol-6-yl)pyridazin-3-yl){[(4-methoxy(2-pyridyl))cyclobutyl]methyl}amine] |
| B (B=1-10 uM) |  | COc1ccc(C2(CNc3ccc(-c4ccc5cn[nH]c5c4)nn3)CCC2)nc1 [(6-(1H-indazol-6-yl)pyridazin-3-yl){[(5-methoxy(2-pyridyl))cyclobutyl]methyl}amine] |
| A (A=<1 uM) |  | COc1cccc(C2(CNc3ccc(-c4ccc5cn[nH]c5c4)nn3)CCC2)n1 [(6-(1H-indazol-6-yl)pyridazin-3-yl){[(6-methoxy(2-pyridyl))cyclobutyl]methyl}amine] |
|  | D (D=>20 uM) | Fc1cccnc1C1(CNc2ccc(-c3nn[nH]n3)nn2)CCC1 [(6-(2H-1,2,3,4-tetraazol-5-yl)pyridazin-3-yl){[(3-fluoro(2-pyridyl))cyclobutyl]methyl}amine] |
|  | D (D=>20 uM) | Fc1cccnc1C1(CNc2ccc(C3CNC3)nn2)CCC1 [(6-azetidin-3-ylpyridazin-3-yl){[(3-fluoro(2-pyridyl))cyclobutyl]methyl}amine] |
| A (A=<1 uM) |  | CC(C)(CNc1ccc(-c2ccc3[nH]cnc3c2)nn1)c1ccc(F)cc1 [(6-benzimidazol-5-ylpyridazin-3-yl)[2-(4-fluorophenyl)-2-methylpropyl]amine] |

| Mean AC1.4 [1] | Mean AC1.4 [2] | SMILES |
| --- | --- | --- |
|  | A (A=<1 uM) | Fc1ccc(C2(Nc3ccc(-c4ccc5[nH]cnc5c4)nn3)CCC2)cc1 [(6-benzimidazol-5-ylpyridazin-3-yl)[(4-fluorophenyl)cyclobutyl]amine] |
| A (A=<1 uM) |  | Fc1cccnc1C1(CNc2ccc(-c3ccc4[nH]cnc4c3)nn2)CCC1 [(6-benzimidazol-5-ylpyridazin-3-yl){[(3-fluoro(2-pyridyl))cyclobutyl]methyl}amine] |
|  | B (B=1-10 uM) | Fc1cccnc1C1(Nc2ccc(-c3ccc4nc[nH]c4c3)nn2)CCC1 [(6-benzimidazol-6-ylpyridazin-3-yl)[(3-fluoro(2-pyridyl))cyclobutyl]amine] |
| A (A=<1 uM) |  | Fc1cccnc1C1(CNc2ccc(-c3ccc4n[nH]nc4c3)nn2)CCC1 [(6-benzotriazol-6-ylpyridazin-3-yl){[(3-fluoro(2-pyridyl))cyclobutyl]methyl}amine] |
|  | C (C=10-20 uM) | Fc1cccnc1C1(Nc2ccc(C3=CCCCC3)nn2)CCC1 [(6-cyclohex-1-enylpyridazin-3-yl)[(3-fluoro(2-pyridyl))cyclobutyl]amine] |
|  | A (A=<1 uM) | Fc1cccnc1C1(CNc2ccc(C3=CCCCC3)nn2)CCC1 [(6-cyclohex-1-enylpyridazin-3-yl){[(3-fluoro(2-pyridyl))cyclobutyl]methyl}amine] |
|  | C (C=10-20 uM) | Fc1cccnc1C1(Nc2ccc(C3CCCCC3)nn2)CCC1 [(6-cyclohexylpyridazin-3-yl)[(3-fluoro(2-pyridyl))cyclobutyl]amine] |
|  | B (B=1-10 uM) | Fc1cccnc1C1(CNc2ccc(C3CCCCC3)nn2)CCC1 [(6-cyclohexylpyridazin-3-yl){[(3-fluoro(2-pyridyl))cyclobutyl]methyl}amine] |
| C (C=10-20 uM) |  | CCc1ccc(NCC(C)(C)c2ccc(F)cc2)nn1 [(6-ethylpyridazin-3-yl)[2-(4-fluorophenyl)-2-methylpropyl]amine] |
|  | D (D=>20 uM) | CCc1ccc(NCC2(c3ncccc3F)CCC2)nn1 [(6-ethylpyridazin-3-yl){[(3-fluoro(2-pyridyl))cyclobutyl]meth-yl}amine] |
| A (A=<1 uM) |  | CC(C)(CNc1ccc(-c2ccc3[nH]nc(NCCN)c3c2)nn1)c1ccc(F)cc1 [(6-{3-[(2-aminoethyl)amino](1H-indazol-5-yl)}pyridazin-3-yl)[2-(4-fluorophenyl)-2-methylpropyl]amine] |
| A (A=<1 uM) |  | NCCNc1n[nH]c2ccc(-c3ccc(NCC4(c5ncccc5F)CCC4)nn3)cc12 [(6-{3-[(2-aminoethyl)amino](1H-indazol-5-yl)}pyridazin-3-yl){[(3-fluoro(2-pyridyl))cyclobutyl]methyl}amine] |
| C (C=10-20 uM) |  | CC(C)(CNc1ccc(C(=O)NCc2cc[nH]n2)nn1)c1ccc(F)cc1 [(6-{[2-(4-fluorophenyl)-2-methylpropyl]amino}pyridazin-3-yl)-N-(pyrazol-3-ylmethyl)carboxamide] |
| C (C=10-20 uM) |  | CC(C)(CNc1ccc(C(=O)NCC2CCC(=O)N2)nn1)c1ccc(F)cc1 (stereo not shown) [(6-{[2-(4-fluorophenyl)-2-methylpropyl]amino}pyridazin-3-yl)-N-[(5-oxopyrrolidin-2-yl)methyl]carboxamide] |
| D (D=>20 uM) |  | CC(C)(CNc1ccc(C(=O)Nc2ccn[nH]2)nn1)c1ccc(F)cc1 [(6-{[2-(4-fluorophenyl)-2-methylpropyl]amino}pyridazin-3-yl)-N-pyrazol-5-ylcarboxamide] |
|  | A (A=<1 uM) | O=C(NCc1cnc(-c2ccc(NCC3(c4ncccc4F)CCC3)nn2)s1)[C@H]1CCCN1 [((2R)pyrrolidin-2-yl)-N-({2-[6-({[(3-fluoro(2-pyridyl))cyclobutyl]methyl}ami-no)pyridazin-3-yl](1,3-thiazol-5-yl)}methyl)carboxamide] |
|  | A (A=<1 uM) | O=C(NCc1cnc(-c2ccc(NCC3(c4ncccc4F)CCC3)nn2)s1)[C@H]1C[C@@H](F)CN1 [((2R,4R)-4-fluoropyrrolidin-2-yl)-N-({2-[6-({[(3-fluoro(2-pyridyl))cyclobutyl]methyl}ami-no)pyridazin-3-yl](1,3-thiazol-5-yl)}methyl)carboxamide] |
|  | A (A=<1 uM) | O=CN1CC(F)(F)C[C@H]1C(=O)NCc1cnc(-c2ccc(NCC3(c4ncccc4F)CCC3)nn2)s1 [((2S)-4,4-difluoro-1-formylpyrrolidin-2-yl)-N-({2-[6-({[(3-fluoro(2-pyridyl))cyclobutyl]methyl}ami-no)pyridazin-3-yl](1,3-thiazol-5-yl)}methyl)carboxamide] |
|  | A (A=<1 uM) | O=C(NCc1cnc(-c2ccc(NCC3(c4ncccc4F)CCC3)nn2)s1)[C@@H]1CC(F)(F)CN1 [((2S)-4,4-difluoropyrrolidin-2-yl)-N-({2-[6-({[(3-fluoro(2-pyridyl))cyclobutyl]methyl}ami-no)pyridazin-3-yl](1,3-thiazol-5-yl)}methyl)carboxamide] |
|  | A (A=<1 uM) | CC(=O)N1CCN[C@H](C(=O)NCc2cnc(-c3ccc(NCC4(c5ncccc5F)CCC4)nn3)s2)C1 [((2S)-4-acetylpiperazin-2-yl)-N-({2-[6-({[(3-fluoro(2-pyridyl))cyclobutyl]methyl}ami-no)pyridazin-3-yl](1,3-thiazol-5-yl)}methyl)carboxamide] |
